For data set [1], the system named is Human immunodeficiency virus 1. Kind of data set: Antiviral activity against wild type HIV1 infected in human H9 cells assessed as p24 protein expression pre-incubated with cells for 2 hrs at 12.5 uM measured after 6 days post infection using multiple dose study wherein additional dose was added every 2 days. It is filed as functional. As to conditions: for inhibition at 12.5 µM: Human immunodeficiency virus 1, H9.

Data set [2] is described as follows: Binding affinity to His-tagged HIV-1 integrase C56S, W131D, F185K and […] mutant by fluorescence anisotropy. The arrangement: species or system Human immunodeficiency virus 1.
Data set [3] in a line: Stability in trypsin and chymotrypsin extract assessed as duration showing initiation of compound degradation at 37 degC by mass spectrometry. It is filed as ADME.
The subject of data set [4] is Human immunodeficiency virus 1. Kind of data set: Antiviral activity against wild type HIV1 infected in human H9 cells assessed as p24 protein expression pre-incubated with cells for 2 hrs at 12.5 uM measured after 8 days post infection using multiple dose study wherein additional dose was added every 2 days. It is filed as functional. As to conditions: for inhibition at 12.5 µM: Human immunodeficiency virus 1, H9.

Data set [5] has as its system Human immunodeficiency virus 1. Kind of data set: Antiviral activity against wild type HIV1 infected in human H9 cells assessed as p24 protein expression pre-incubated with cells for 2 hrs at 12.5 uM measured after 6 days post infection using single dose study. To be noted: for inhibition at 12.5 µM: Human immunodeficiency virus 1, H9. The format is functional.
In data set [6] the test system is Human immunodeficiency virus 1. Kind of data set: Inhibition of His-tagged HIV-1 integrase C56S, W131D, F185K and […] mutant at 20 uM by fluorescence anisotropy. A general note: Fluorescence polarisation rises when a labelled molecule tumbles more slowly, as on binding a larger partner.
The subject of data set [7] is Human immunodeficiency virus 1. Kind of data set: Antiviral activity against wild type HIV1 infected in human H9 cells assessed as p24 protein expression pre-incubated with cells for 2 hrs at 12.5 uM measured after 8 days post infection using single dose study. To be noted: for inhibition at 12.5 µM: Human immunodeficiency virus 1, H9. It is filed as functional.

The source made the active and inactive calls. The calls are words filed in the database; no cut-off is given here. Starred links: 1 amine or outer side, 2 acyl side, 3 side chain; linkers in the order of their positions; H or OH if unused. Positions of bridges follow the written chain, without caps; N, C: chain ends. Non-standard residues stand in square brackets, D forms with d. Residues, ends and D or L forms follow the SMILES beside them. ξ: configuration not given here. X1 = NC(CC(=O)[*:1])C(=O)[*:2]; ξOrn = NCCCC(N)C(=O)O; Nlys = NCCCCNCC(=O)O; ξK = NCCCCC(N)C(=O)O

Take `CC[C@H](C)[C@@H]1NC(=O)[C@H](CCCCN)NC(=O)[C@H](CC(C)C)NC(=O)[C@H](CO)NC(=O)[C@H](CC(N)=O)NC(=O)[C@H](Cc2c[nH]c3ccccc23)NC(=O)CC(N)C(=O)NCCCC(C(N)=O)NC(=O)[C@H](C(C)C)NC(=O)[C@H](CC(=O)O)NC(=O)[C@H](CC(C)C)NC(=O)[C@H](CC(N)=O)NC(=O)[C@H](CC(=O)O)NC1=O` (stereo partly drawn) (WNSLKIDNLDV[ξOrn]-NH2; linker N-12 via X1): the inhibition (usually the relative decrease from the control value, in per cent) at 12.5 µM in data set [1] amounted to 40%; in data set [4] it was 40%; in data set [5], 25%; in data set [7], 25%. Also, binding in data set [2] was put at a Kd of 2 µM. Besides, the Stability in data set [3] was 150 min. This molecule also yielded an inhibition in data set [6] of 50%.
As for `CC[C@H](C)[C@@H]1NC(=O)[C@H](CCCCN)NC(=O)[C@H](CC(C)C)NC(=O)[C@H](CO)NC(=O)[C@H](CC(N)=O)NC(=O)[C@H](Cc2c[nH]c3ccccc23)NC(=O)CC(N)C(=O)NCCCCC(C(N)=O)NC(=O)[C@H](C(C)C)NC(=O)[C@H](CC(=O)O)NC(=O)[C@H](CC(C)C)NC(=O)[C@H](CC(N)=O)NC(=O)[C@H](CC(=O)O)NC1=O` (stereo partly drawn) (WNSLKIDNLDV[ξK]-NH2; linker N-12 via X1), the inhibition at 12.5 µM came to 85% in data set [1], 85% in data set [4], 80% in data set [5] and 65% in data set [7]. In addition, in data set [2], binding was put at a Kd of 2.5 µM. In data set [3], the Stability came to 150 min. This molecule also had an inhibition in data set [6] of 55%.
On to `CC[C@H](C)[C@@H]1NC(=O)[C@H](CCCCN)NC(=O)[C@H](CC(C)C)NC(=O)[C@H](CO)NC(=O)[C@H](CC(N)=O)NC(=O)[C@H](Cc2c[nH]c3ccccc23)NC(=O)CC(N)C(=O)NCCCCN(CC(N)=O)C(=O)[C@H](C(C)C)NC(=O)[C@H](CC(=O)O)NC(=O)[C@H](CC(C)C)NC(=O)[C@H](CC(N)=O)NC(=O)[C@H](CC(=O)O)NC1=O` (stereo partly drawn) (WNSLKIDNLDV[Nlys]-NH2; linker N-12 via X1), for which the inhibition entry in data set [1] and in data set [4] was “Active” in each case. The Kd (commonly the free concentration of one partner at which half of the binding sites on the other are occupied at equilibrium, for simple one-to-one binding) in data set [2] was 5 µM. Also, the Stability in data set [3] came to 150 min. The inhibition at 12.5 µM in data set [5] and in data set [7] was 90% each time. The same molecule displayed an inhibition in data set [6] of 90%.
For H-WNSLKIDNLDV-OH, the inhibition entry in data set [1] and in data set [4] was “Active” throughout. The molecule also returned a Kd in data set [2] of 5.1 µM. Further, the Stability in data set [3] is 30 min. The inhibition entry in data set [5] and in data set [7] was “inactive” throughout. The molecule also showed an inhibition in data set [6] of 83%.

Source of the values: ChEMBL document CHEMBL2016519, “A comparative study of backbone versus side chain peptide cyclization: application for HIV-1 integrase inhibitors” (Bioorg Med Chem, 2012).
